Results as given in US6335354B2, “Aminopyridines and methods of using thereof” (CoCensys Inc., priority 2000, dated 2002).

Experiments:
[1] = tested on: maximal electroshock-induced seizures (MES); experiment: maximum electroshock seizure test (MES); format: in vivo; settings: Mus musculus, iv; mice, injected i.v. 15 minutes before the test procedure; read-out: ED50 (the dose protecting 50% of animals), protection against MES
Description: The compounds of the present invention may be tested for in vivo anticonvulsant activity after i.v., p.o. or i.p. injection using a number of anticonvulsant tests in mice, including the maximum electroshock seizure test (MES). Maximum electroshock seizures were induced in male NSA mice weighing between 15-20 g and male Sprague-Dawley rats weighing between 200-225 g by application of current (50 mA, 60 pulses/sec, 0.8 msec pulse width, 1 sec duration, D.C., mice; 99 mA. 125 pulses/sec, 0.8 msec pulse width, 2 sec duration, D.C., rats) using a Ugo Basile FCT device (Model 7801). Mice were restrained by gripping the loose skin on their dorsal surface and saline-coated corneal electrodes were held lightly against the two corneae. Rats were allowed free movement on the bench top and ear-clip electrodes were used. […] A tonic seizure was defined as a hindlimb extension in excess of 90 degrees from the plane of the body. Results were treated in a quantal manner. The ability of N^3-[4-(4-fluorophenoxy)benzyl]pyridine-2,3-diamine to block maximal electroshock-iniduced seizures (MES) was determined according to the method above. N^3-[4-(4-Fluorophenoxy)benzyl]pyridine-2,3-diamine was injected i.v. to mice 15 minutes before the test procedure.

[2] = target: T1, hSkM1 isoform of Na+ channels (Homo sapiens, UniProt P35499); experiment: Electrophysiological assay, whole-cell patch-clamp recordings of voltage-sensitive Na+ currents; format: cell-based; settings: HEK-293 cells stably expressing hSkM1
T1 construct: expressed in transfected cells
Method: Cell preparalion. HEK-293 cells stably expressing the hSkM1 isoform of Na^+ channels (generous gift from Dr. A. L. George, Vanderbilt University Medical School) were cultured using standard techniques, as described previously (Verdoorn, T. A, et al., Neuron 4:919-928 (1990)). For electrophysiology, cells were plated onto 35 mm Petri dishes (pre-coated with poly-D-lysine) at a density of 1:40 on the day of re-seeding from confluent cultures. Our experience has been that cells are suitable for recordings for 2-3 days after plating.
Patch-clamp recordings of voltage-sensitive Na^+ currenis. Whole-cell voltage-clamp recordings were made using conventional patch-clamp techniques (Hamill et al, Pfluegers Arch. 391:85-100 (1981)) with an Axopatch 200A amplifier (Axon Instruments, Foster City, Calif.). Recordings were made within 2-3 hours after neuron dissociation. The recording chamber was continuously superfused with the external solution (150 mM NaCl, 5.4 mM KCl, 1.8 mM CaCl2, 1 mM MgCl2, 10 mM HEPES, 10 mM glucose, pH 7.4 (NaOH)) at a speed of about 1 mL/min. Recording pipettes were pulled from thick-walled capillaries (WPI, Sarasota, Fla.) and fire-polished. The pipette resistances ranged from 1 to 3 MΩ when the pipettes were filled with internal solution containing (in mM): 110 CsF, 10 NaCl, 5 MgCl2, 11 EGTA, 10 HEPES, pH adjusted to 7.4 with CsOH. Osmolality was set with a difference of 15-20 mmol/kg between external and internal solutions (lower inside the cell). Drugs and intervening wash-outs were applied through a linear array of flow pipes (Drummond Microcaps, 2 μL, 64-mm length). […] Currents were recorded at room temperature (22-25° C.), filtered at 5 kHz with an active 8-pole Bessel filter (Frequency Devices, Haverhill, Mass.), digitized at 10-50 μs intervals, and stored using Digidata 1200 analog/digital interface with Pclamp6/Clampex software (Axon Instruments). […] The inhibitory potency of drugs was assessed by measuring reductions in the peak amplitude of Na^+ currents induced by increasing concentrations of compounds tested. […]

T1 sequence (P35499 whole entry, canonical isoform): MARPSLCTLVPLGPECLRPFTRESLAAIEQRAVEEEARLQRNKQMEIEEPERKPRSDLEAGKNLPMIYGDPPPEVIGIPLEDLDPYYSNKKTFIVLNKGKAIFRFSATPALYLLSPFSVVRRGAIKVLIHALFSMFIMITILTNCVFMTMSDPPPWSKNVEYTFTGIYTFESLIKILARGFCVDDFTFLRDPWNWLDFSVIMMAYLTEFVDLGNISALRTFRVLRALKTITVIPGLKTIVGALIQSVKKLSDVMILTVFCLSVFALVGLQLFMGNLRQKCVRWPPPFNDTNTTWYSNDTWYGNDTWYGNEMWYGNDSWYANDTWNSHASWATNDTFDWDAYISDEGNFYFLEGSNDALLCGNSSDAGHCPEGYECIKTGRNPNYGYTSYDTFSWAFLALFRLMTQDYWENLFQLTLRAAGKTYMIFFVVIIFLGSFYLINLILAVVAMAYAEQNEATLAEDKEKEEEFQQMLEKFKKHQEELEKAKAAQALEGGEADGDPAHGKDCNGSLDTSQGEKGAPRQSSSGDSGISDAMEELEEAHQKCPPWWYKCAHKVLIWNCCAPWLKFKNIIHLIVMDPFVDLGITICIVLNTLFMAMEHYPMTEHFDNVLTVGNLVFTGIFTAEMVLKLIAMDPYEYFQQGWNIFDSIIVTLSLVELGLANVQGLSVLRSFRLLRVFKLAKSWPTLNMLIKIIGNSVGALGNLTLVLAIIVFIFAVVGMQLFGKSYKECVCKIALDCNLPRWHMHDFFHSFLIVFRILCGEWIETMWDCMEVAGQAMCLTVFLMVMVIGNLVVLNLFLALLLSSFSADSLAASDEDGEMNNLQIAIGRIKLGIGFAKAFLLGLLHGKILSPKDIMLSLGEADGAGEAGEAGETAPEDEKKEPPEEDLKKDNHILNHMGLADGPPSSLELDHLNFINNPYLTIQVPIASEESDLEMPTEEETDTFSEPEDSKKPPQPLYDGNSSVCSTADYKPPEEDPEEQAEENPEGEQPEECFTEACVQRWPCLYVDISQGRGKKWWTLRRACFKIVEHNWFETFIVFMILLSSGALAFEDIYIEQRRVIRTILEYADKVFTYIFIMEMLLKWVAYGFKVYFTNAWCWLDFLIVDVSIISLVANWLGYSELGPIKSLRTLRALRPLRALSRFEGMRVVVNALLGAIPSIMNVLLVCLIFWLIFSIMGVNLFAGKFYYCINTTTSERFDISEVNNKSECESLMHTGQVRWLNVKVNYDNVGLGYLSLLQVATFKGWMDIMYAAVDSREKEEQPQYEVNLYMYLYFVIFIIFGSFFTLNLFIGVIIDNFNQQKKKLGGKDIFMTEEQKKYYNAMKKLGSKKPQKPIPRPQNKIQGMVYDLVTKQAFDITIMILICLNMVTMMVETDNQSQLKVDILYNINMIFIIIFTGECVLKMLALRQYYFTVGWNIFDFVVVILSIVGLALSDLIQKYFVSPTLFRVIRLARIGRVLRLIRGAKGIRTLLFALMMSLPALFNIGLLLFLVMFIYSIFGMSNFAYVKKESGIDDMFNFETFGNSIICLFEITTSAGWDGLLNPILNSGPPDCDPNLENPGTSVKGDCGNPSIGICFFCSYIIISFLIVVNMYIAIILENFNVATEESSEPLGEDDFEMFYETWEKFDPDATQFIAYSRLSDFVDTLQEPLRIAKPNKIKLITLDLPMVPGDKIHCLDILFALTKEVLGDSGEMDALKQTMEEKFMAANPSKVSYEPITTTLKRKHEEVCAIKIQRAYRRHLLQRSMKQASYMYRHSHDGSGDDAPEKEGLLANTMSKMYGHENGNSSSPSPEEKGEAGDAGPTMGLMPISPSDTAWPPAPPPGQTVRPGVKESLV

inhibition of voltage-gated sodium currents [2] | Ki ([2]; inactivated state, read-out: apparent antagonist dissociation constant Ki (the concentration of a compound that produces half maximal inhibition) for inactivated sodium channels) | potency towards Na+ channels in their resting states ([2]; resting state) | SMILES | ED50 [1]
– | – | – | Nc1ncccc1NCc1ccc(OCc2cccc(F)c2)cc1 [N^3-[4-(3-Fluorobenzyloxy)benzyl]pyridine-2,3-diamine] | 2.9 mg/kg
dose-dependent inhibition | 60 nM | weak potency | Nc1ncccc1NCc1ccc(Oc2ccc(F)cc2)cc1 [N^3-[4-(4-Fluorophenoxy)benzyl]pyridine-2,3-diamine] | –
